# Reference: article PMC11025159 (Journal of Translational Medicine, 2024)
# “And” between values parts separate entries of the source, which are not always exact repeats. Identical values can stand only once.
# How the values were obtained:
# [1] = tested on: HCT-116; test: MTT cell viability assay HCT-116; assay type: cell-based, human; conditions: Homo sapiens, HCT-116, 48 h
# Description: (§1) Cell viability was evaluated using an MTT colorimetric assay. Cells were seeded (10^5 cells/mL) in 96-well plates and allowed to grow overnight at 37 ℃ with 5% CO2 in a cell-culture incubator. On the following day, the cells were treated with small molecules at different concentrations (0.2–10 micro-molar) or vehicle (DMSO). Cells were then further incubated for 48 h.
# [2] = tested on: IFN-γ-producing CD4+ T-cells; test: T-cell differentiation of splenocytes, IFN-γ in CD4+ T-cells (Th1), flow cytometry; assay type: cell-based, C57BL/6 mice; conditions: dose-dependent, 0.01-10 µM
# Description: Splenocytes were isolated from the spleen of C57BL/6 mice. The whole spleen was crushed in a complete RPMI medium and passed through the 40 µm cell filter to obtain a single-cell suspension. The cell suspension was centrifuged at 300×g for 5 min, and the pellet was resuspended into the 1× RBC lysis buffer (Life Technology, Thermofisher, USA) for 10 min at room temperature to lyse the red blood cells. The sample was further centrifuged at the same speed and duration, and the pellet was resuspended in complete RPMI medium. Now, splenocytes were seeded into the 96-well plates (U bottom) at 3 × 10^5 cells/well density. […] For Th1 and Tc1 differentiation, IL-12 (5 ng/ml) was added and allowed to grow for four days.
# Prior to harvesting, cells were further stimulated with PMA (50 ng/ml), ionomycin (1000 ng/ml), and glogi Stop (as per manufacturer recommendation) for 4 h. The plate was spun down at 2000 rpm for 10 min and washed once with FACS buffer (3% FBS, 1× PBS, and 200 mM EDTA). Cells were stained with anti-CD4-PerCP and anti-CD8-FITC antibodies (BD, Biosciences) in the dilution 1:400 by adding 100 µl/well and incubated at RT for 60 min. […] Cells were finally washed and resuspended into FACS buffer, and data was recorded into the BD accuri C6 flow cytometer, and data were analyzed by Flowjo.
# [3] = tested on: Mia PaCa-2; test: MTT cell viability assay Mia PaCa-2; assay type: cell-based, human; conditions: Homo sapiens, MIA PaCa-2, 48 h
# Description: as §1
# [4] = Body weight, biochemical and haematological parameters in DHT-induced AGA mice (0.5% testosterone then topical treatment); assay type: in vivo, C57BL/6J mice; conditions: for Weight of C57BL/6J mice: individual mice; for ALP / ALT/SGPT / AST/SGOT / Cholesterol / Creatine / HCT / HDL / HGB / LDL / MCHC / MCV / NEUT / PLT / RBC / Total protein / Triglyceride / Urea / WBC / LYMPH: Day 21; for LYMPH: unit assumed
# Description: The experiments were performed on C57BL/6 J and Athymic nude mice (NU/J Foxn1^nu) of 6–7 weeks of age obtained from Animal House Facility, CSIR-Indian Institute of Integrative Medicine (IIIM), Jammu, India. […] The animals were provided with ad libitum feed (standard pellet diet) and autoclaved RO water throughout the study. The body weight of mice was measured after seven days before treatment.
# C57BL/6 J mice (male) were obtained from CSIR-IIIM Animal House at 7 weeks of age. We used a DHT-induced AGA mice model for this study. […] At the end of the experiment, skin samples were collected and preserved in 10% neutral buffered formalin for tissue sectioning and staining using haematoxylin and eosin (H&E). The histopathological examinations were performed under the 10× and 40× objectives of light microscope (Magnus, Mx21i).
# Every two weeks during the experimental period, mice were anesthetized, and the blood samples were collected into tubes containing heparin sodium to detect the total and differential white blood cells, haemoglobin, red blood cell, platelet count, mean corpuscular haemoglobin, mean corpuscular volume, red blood cell volume, mean platelet volume, and analyzed using an automated haematology analyzer (Model: XT1800i; Make: Sysmex).
# Every two weeks during the experimental period, mice and rats were anesthetized, and blood samples were collected into non-heparinized tubes and then centrifuged at 1000 rpm at 4 °C for 10 min to obtain the serum. The biochemical parameters, including total protein, aspartate aminotransferase, alanine aminotransferase, total protein, albumin, total bilirubin, direct bilirubin, glucose, total cholesterol, triglyceride, low-density lipoprotein, high-density lipoprotein, creatinine, and uric acid, were measured using an automatic biochemical analyzer (Model: EM360; Make: Erba Mannheim).
smiles,measurement,setting,value
Fc1ccc(-c2cnc3[nH]cc(-c4ccnc(NC5CC5)n4)c3c2)cc1 [MJ04],IC50,[1],2.6 µM
same,differentiation of naïve T cells into Th1 subsets,[2],inhibits the differentiation of naïve T cells
same,IC50,[3],2.27 µM
same,Weight of C57BL/6J mice,"[4]; 0.016 mg/Kg, DAY 1, in g (unit assumed)",27.2 and 23.8 and 24.6 and 24.7 and 25.6 and 25.7 and 25.8
same,Weight of C57BL/6J mice,"[4]; 0.016 mg/Kg, DAY 7",28.1 and 25.1 and 26.1 (2×) and 26.9 and 27.1 and 27.3
same,Weight of C57BL/6J mice,"[4]; 0.016 mg/Kg, DAY 14, in g (unit assumed)",29.3 and 26.4 and 27.3 and 27.4 and 28.1 and 28.4 and 28.7
same,Weight of C57BL/6J mice,"[4]; 0.016 mg/Kg, DAY 21, in g (unit assumed)",27.6 and 28.7 and 28.9 and 29.7 and 30.1 and 30.4
same,Weight of C57BL/6J mice,"[4]; 0.016 mg/Kg, DAY 28",30.3 and 30.4 (2×) and 31.6 and 31.7
same,Weight of C57BL/6J mice,"[4]; 0.04 mg/Kg, DAY 1",24.2 and 24.6 and 25.6 (2×) and 25.7 and 25.8 and 26.3 and 27.4
same,Weight of C57BL/6J mice,"[4]; 0.04 mg/Kg, DAY 7, in g (unit assumed)",26.1 and 26.3 and 26.4 and 26.7 and 26.9 and 27.1 and 27.2 and 28.7
same,Weight of C57BL/6J mice,"[4]; 0.04 mg/Kg, DAY 14",28.1 and 28.3 (2×) and 28.5 and 28.6 and 28.7 and 29.6
same,Weight of C57BL/6J mice,"[4]; 0.04 mg/Kg, DAY 21",29.4 and 29.7 and 29.8 and 30.1 and 30.4 (2×)
same,Weight of C57BL/6J mice,"[4]; 0.04 mg/Kg, DAY 28",30.3 and 31.2 (2×) and 31.3 and 31.5
same,Weight of C57BL/6J mice,"[4]; 0.08 mg/Kg, DAY 1",24.8 and 25.4 (2×) and 26.4 (2×) and 24.2 and 25.6 and 25.9
same,Weight of C57BL/6J mice,"[4]; 0.08 mg/Kg, DAY 7",26.7 (3×) and 25.5 and 27.3 and 27.5 and 28.37 and 25.7
same,Weight of C57BL/6J mice,"[4]; 0.08 mg/Kg, DAY 14",27.6 and 28.1 (2×) and 28.4 and 27.1 and 29.3 and 27.4
same,Weight of C57BL/6J mice,"[4]; 0.08 mg/Kg, DAY 21",29.4 (2×) and 29.7 and 30.1 and 30.7 and 28.6
same,Weight of C57BL/6J mice,"[4]; 0.08 mg/Kg, DAY 28",30.3 and 31.2 and 31.3 (2×) and 30.2
same,ALP,[4]; 0.016 mg/Kg,99 U/L
same,ALT/SGPT,[4]; 0.016 mg/Kg,86 U/L
same,AST/SGOT,[4]; 0.016 mg/Kg,143 U/L
same,Cholesterol,[4]; 0.016 mg/Kg,154 mg/dL
same,Creatine,[4]; 0.016 mg/Kg,0.72 mg/dL
same,HCT,[4]; 0.016 mg/Kg,48%
same,HDL,[4]; 0.016 mg/Kg,112 mg/dL
same,HGB,[4]; 0.016 mg/Kg,14 g/dL
same,LDL,[4]; 0.016 mg/Kg,103 mg/dL
same,MCHC,[4]; 0.016 mg/Kg,29 g/dL
same,MCV,[4]; 0.016 mg/Kg,50 fL
same,NEUT,[4]; 0.016 mg/Kg,25.7%
same,PLT,[4]; 0.016 mg/Kg,1105 103/μl
same,RBC,[4]; 0.016 mg/Kg,9.7 1012/l
same,Total protein,[4]; 0.016 mg/Kg,5.2 g/dL
same,Triglyceride,[4]; 0.016 mg/Kg,114 mg/dL
same,Urea,[4]; 0.016 mg/Kg,55 mg/dL
same,WBC,[4]; 0.016 mg/Kg,6.5 103/μl
same,LYMPH,[4]; 0.016 mg/Kg,73.3%
same,ALP,[4]; 0.04 mg/Kg,121 U/L
same,ALT/SGPT,[4]; 0.04 mg/Kg,74 U/L
same,AST/SGOT,[4]; 0.04 mg/Kg,148 U/L
same,Cholesterol,[4]; 0.04 mg/Kg,138 mg/dL
same,Creatine,[4]; 0.04 mg/Kg,0.69 mg/dL
same,HCT,[4]; 0.04 mg/Kg,46%
same,HDL,[4]; 0.04 mg/Kg,111 mg/dL
same,HGB,[4]; 0.04 mg/Kg,13 g/dL
same,LDL,[4]; 0.04 mg/Kg,101 mg/dL
same,MCHC,[4]; 0.04 mg/Kg,29 g/dL
same,MCV,[4]; 0.04 mg/Kg,50 fL
same,NEUT,[4]; 0.04 mg/Kg,39.4%
same,PLT,[4]; 0.04 mg/Kg,899 103/μl
same,RBC,[4]; 0.04 mg/Kg,9.0 1012/l
same,Total protein,[4]; 0.04 mg/Kg,4.9 g/dL
same,Triglyceride,[4]; 0.04 mg/Kg,127 mg/dL
same,Urea,[4]; 0.04 mg/Kg,49 mg/dL
same,WBC,[4]; 0.04 mg/Kg,3.0 103/μl
same,LYMPH,[4]; 0.04 mg/Kg,60.3%
same,ALP,[4]; 0.08 mg/Kg,111 U/L
same,ALT/SGPT,[4]; 0.08 mg/Kg,58 U/L
same,AST/SGOT,[4]; 0.08 mg/Kg,114 U/L
same,Cholesterol,[4]; 0.08 mg/Kg,184 mg/dL
same,Creatine,[4]; 0.08 mg/Kg,0.49 mg/dL
same,HCT,[4]; 0.08 mg/Kg,36%
same,HDL,[4]; 0.08 mg/Kg,105 mg/dL
same,HGB,[4]; 0.08 mg/Kg,10 g/dL
